Patent publication US20260182572A1, “HERBICIDAL COMPOSITIONS” (SYNGENTA CROP PROTECTION AG, priority 2022, published 2026)

Key:
Format in all cases: in vivo
Details in all cases: sprayed after 8 days, evaluated after 13 days
[1] = tested on: Alopecurus myosuroides (ALOMY); assay: Glasshouse post-emergence phytotoxicity test, Alopecurus myosuroides (ALOMY)
Experimental: (§1) Seeds of Amaranthus retroflexus (AMARE), Echinochloa crus-galli (ECHCG), Digitaria sanguinalis (DIGSA), Lolium perenne (LOLPE), Alopecurus myosuroides (ALOMY), Chenopodium album (CHEAL), and Ipomoea hederacea (IPOHE) were sown in standard sterilised soil in pots. After cultivation for 8 days under controlled conditions in a glasshouse (at 24/16° C., day/night; 14 hours light; 65% humidity), the plants were sprayed at 500 l/Ha with an aqueous spray solution derived from the formulation of the technical active ingredients in a small amount of acetone and a solvent and emulsifier mixture referred to as IF50 (11.12% Emulsogen EL360 TM+44.44% N-methylpyrrolidone+44.44% Dowanol DPM glycol ether), to create a 50 g/l solution which was then diluted using 0.2% Genapol XO80 (CAS Number: 9043-30-5) as diluent to give the desired final dose of test compound. Where active ingredients were applied as mixtures, aqueous spray solutions were prepared as above, containing both active ingredients. The test plants were then grown under controlled conditions in a glasshouse (at 24/16° C., day/night; 14 hours light; 65% humidity) and watered twice daily. After 13 days, the test was evaluated visually for percentage phytotoxicity to the plants (where 100=total damage to plant; 0=no damage to plant) when compared to control untreated plants. Two to four replicates were applied for each treatment in a randomised block test design.
(§2) 22., E=X+Y−(X*Y/100), where • X=average percent phytotoxicity of herbicide A when applied at a certain rate • Y=average percent phytotoxicity using herbicide B when applied at a certain rate • E=the expected effect of the mixture of herbicides A and B as calculated from the Colby formula.

[2] = tested on: Lolium perenne (LOLPE); assay: Glasshouse post-emergence phytotoxicity test, Lolium perenne (LOLPE)
Experimental: as §1, §2

[3] = tested on: Digitaria sanguinalis (DIGSA); assay: Glasshouse post-emergence phytotoxicity test, Digitaria sanguinalis (DIGSA)
Experimental: as §1, §2

[4] = tested on: Echinochloa crus-galli (ECHCG); assay: Glasshouse post-emergence phytotoxicity test, Echinochloa crus-galli (ECHCG)
Experimental: as §1, with “Where active ingredients were applied as mixtures, aqueous spray solutions were prepared as above, containing both active ingredients. The test plants were then grown under controlled conditions in a glasshouse (at 24/16° C., day/night; 14 hours light; 65% humidity) and watered twice daily.” left out, “Two to four replicates were applied for each treatment in a randomised block test design.” left out
as §2

[5] = tested on: Amaranthus retroflexus (AMARE); assay: Glasshouse post-emergence phytotoxicity test, Amaranthus retroflexus (AMARE)
Experimental: as §1, §2

[6] = tested on: Chenopodium album (CHEAL); assay: Glasshouse post-emergence phytotoxicity test, Chenopodium album (CHEAL)
Experimental: as §1, §2

[7] = tested on: Ipomoea hederacea (IPOHE); assay: Glasshouse post-emergence phytotoxicity test, Ipomoea hederacea (IPOHE)
Experimental: as §1, §2

Row | SMILES | Observed percentage phytotoxicity ([1]; rate 0.039 g/ha) [%] | Observed percentage phytotoxicity ([2]; rate 0.313 g/ha) [%] | Observed percentage phytotoxicity ([3]; rate 0.156 g/ha) [%] | Observed percentage phytotoxicity ([3]; rate 0.313 g/ha) [%] | Observed percentage phytotoxicity ([5]; rate 0.078 g/ha) [%] | Observed percentage phytotoxicity ([6]; rate 0.156 g/ha) [%] | Observed percentage phytotoxicity ([6]; rate 0.313 g/ha) [%] | Observed percentage phytotoxicity ([2]; rate 0.156 g/ha) [%] | Observed percentage phytotoxicity ([7]; rate 0.313 g/ha) [%] | further results
1 | C=CCOC(=O)C(C)(C)OC(=O)c1cc(-n2c(=O)cc(C(F)(F)F)n(C)c2=O)ccc1Cl [B-I] | 0 | 5 | 5 | 10 | 33 | 20 | 40 | – | – | Observed percentage phytotoxicity ([1]; rate 0.625 g/ha): 8%; Observed percentage phytotoxicity ([2]; rate 0.039 g/ha): 0%; Observed percentage phytotoxicity ([2]; rate 0.625 g/ha): 5%; Observed percentage phytotoxicity ([3]; rate 0.625 g/ha): 15%; Observed percentage phytotoxicity ([4]; rate 0.625 g/ha): 5%
2 | c1cc[n+]2c(c1)-c1cccc[n+]1CC2 [B-III] | – | – | – | – | – | – | – | – | – | Observed percentage phytotoxicity ([5]; rate 3.75 g/ha): 8%; Observed percentage phytotoxicity ([6]; rate 15 g/ha): 15%; Observed percentage phytotoxicity ([7]; rate 7.5 g/ha): 5%
3 | COC(=O)[C@@H](C)O/N=C/c1cc(-n2c(=O)cc(C(F)(F)F)n(C)c2=O)c(F)cc1Cl [A] | 0 | 5 | 3 | 9 | 39 | 24 | 31 | 0 | 68 | Observed percentage phytotoxicity ([1]; rate 0.313 g/ha): 3%; Observed percentage phytotoxicity ([2]; rate 0.078 g/ha): 3%; Observed percentage phytotoxicity ([4]; rate 0.313 g/ha): 1%; Observed percentage phytotoxicity ([5]; rate 0.156 g/ha): 68%; Observed percentage phytotoxicity ([6]; rate 0.625 g/ha): 33%; Observed percentage phytotoxicity ([7]; rate 0.078 g/ha): 20%
4 | COC(=O)CCNC(=O)C(C)Sc1cc(-n2c(=O)cc(C(F)(F)F)n(C)c2=O)c(F)cc1Cl (stereo not drawn) [B-II] | – | 3 | – | 8 | 30 | 18 | 18 | 5 | 40 | Observed percentage phytotoxicity ([6]; rate 0.078 g/ha): 15%; Observed percentage phytotoxicity ([7]; rate 0.156 g/ha): 18%
